# Experimental data taken from patent US3940413A, “1-Ethyl-imidazoles” (Bayer Aktiengesellschaft, priority 1972, dated 1976).
# Tests used:
# Test in all cases: antimycotic action spectrum in vitro, series dilution test
# Type in all cases: cell-based
# [1] = tested on: Aspergillus niger; conditions: in nutrient medium, 28°C, 24 to 96 hours; for MIC: Aspergillus niger, read-out: Minimum inhibitory concentration, Aspergillus niger
# Protocol: (§1) Determination of the anti-mycotic action spectrum in vitro by the series dilution test.
# (§2) The nutrient substrates used were, for dermatophytes and moulds, Sabourauds' test medium, and, for blastomyces and biphase fungi, meat broth-glucose bouillon.
# (§3) The incubation temperature was 28°C and the incubation time was 24 to 96 hours.
# [2] = tested on: Candida albicans; conditions: in nutrient medium, 28°C, 24 to 96 hours; for MIC: Candida albicans, read-out: Minimum inhibitory concentration, Candida albicans
# Protocol: as §1, §2, §3
# [3] = tested on: Penicillium commune; conditions: in nutrient medium, 28°C, 24 to 96 hours; for MIC: Penicillium commune, read-out: Minimum inhibitory concentration, Penicillium commune
# Protocol: as §1, §2, §3
# [4] = tested on: Trichophyton mentagrophytes; conditions: in nutrient medium, Sabourauds' test medium, 28°C, 24 to 96 hours; for MIC: Trichophyton mentagrophytes, read-out: Minimum inhibitory concentration, Trichophyton mentagrophytes
# Protocol: as §1, §2, §3
Compound,MIC [1],MIC [2],MIC [3],MIC [4],"Minimum inhibitory concentration, Aspergillus niger [1]","Minimum inhibitory concentration, Candida albicans [2]","Minimum inhibitory concentration, Penicillium commune [3]","Minimum inhibitory concentration, Trichophyton mentagrophytes [4]"
"CC(C)(C)C(=O)C(Cn1ccnc1)Oc1ccc(Cl)cc1 (centres unmarked) [Example 1, 2-(4-chlorophenoxy)-1-imidazolyl-(1)-4,4-dimethyl-pentan-3-one]",8 µg/mL,4 µg/mL,32 µg/mL,4 µg/mL,,,,
"CC(C)(C)C(=O)C(Cn1ccnc1)Oc1ccc(Cl)cc1 (centres unmarked) [Example 4, 2-(4-chlorophenoxy)-1-imidazolyl-(1)-4,4-dimethyl-pentan-3-one]",,,,,4 µg/mL,4 µg/mL,32 µg/mL,4 µg/mL
"CC(C)(C)C(=O)C(Cn1ccnc1)Oc1ccc(Cl)cc1Cl (centres unmarked) [Example 5, 2-(2,4-dichlorophenoxy)-1-imidazolyl-(1)-4,4-dimethyl-pentan-3-one]",4 µg/mL,4 µg/mL,16 µg/mL,< 1 µg/mL,,,,
"CC(C)(C)C(=O)C(Cn1ccnc1)Oc1ccc(Br)cc1 (centres unmarked) [Example 6, 2-(4-bromophenoxy)-1-imidazolyl-(1)-4,4-dimethyl-pentan-3-one]",4 µg/mL,4 µg/mL,16 µg/mL,8 µg/mL,,,,
"CC(C)(C)C(=O)C(Cn1ccnc1)Oc1ccc(F)cc1 (centres unmarked) [Example 7, 2-(4-fluorophenoxy)-1-imidazolyl-(1)-4,4-dimethyl-pentan-3-one]",4 µg/mL,4 µg/mL,32 µg/mL,8 µg/mL,,,,
"CC(C)(C)C(=O)C(Cn1ccnc1)Oc1ccccc1Cl (centres unmarked) [Example 8, 2-(2-chlorophenoxy)-1-imidazolyl-(1)-4,4-dimethyl-pentan-3-one]",4 µg/mL,4 µg/mL,16 µg/mL,8 µg/mL,,,,
"CC(C)(C)C(=O)C(Cn1ccnc1)Oc1cccc(Cl)c1 (centres unmarked) [Example 9, 2-(3-chlorophenoxy)-1-imidazolyl-(1)-4,4-dimethyl-pentan-3-one]",4 µg/mL,4 µg/mL,16 µg/mL,4 µg/mL,,,,
"CC(C)(C)C(=O)C(Cn1ccnc1)Oc1cc(Cl)c(Cl)cc1Cl (centres unmarked) [Example 10, 2-(2,4,5-trichlorophenoxy)-1-imidazolyl-(1)-4,4-dimethyl-pentan-3-one]",4 µg/mL,4 µg/mL,16 µg/mL,4 µg/mL,,,,
Cc1cc(Cl)ccc1OC(Cn1ccnc1)C(=O)C(C)(C)C (centres unmarked) [Example 12],8 µg/mL,4 µg/mL,8 µg/mL,< 1 µg/mL,,,,
"CC(C)(C)C(=O)C(Cn1ccnc1)Oc1ccccc1-c1ccccc1 (centres unmarked) [Example 13, 2-(2-phenylphenoxy)-1-imidazolyl-(1)-4,4-dimethyl-pentan-3-one]",8 µg/mL,4 µg/mL,16 µg/mL,8 µg/mL,,,,
"CC(C)(C)C(=O)C(Cn1ccnc1)Oc1ccc(-c2ccccc2)cc1 (centres unmarked) [Example 14, 2-(4-phenylphenoxy)-1-imidazolyl-(1)-4,4-dimethyl-pentan-3-one]",8 µg/mL,4 µg/mL,8 µg/mL,< 1 µg/mL,,,,
